Assay results as given in the supplement of paper PMC10307832.

Tests used:
Experiment in all cases: relative viability (nuclei count vs DMSO), 5 days (fraction); higher = more cells survive
Cediranib = compound: COc1cc2c(Oc3ccc4[nH]c(C)cc4c3F)ncnc2cc1OCCCN1CCCC1 [Cediranib]
How it was run: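 After an overnight hold at 37 °C, lung cancer cell lines in 1536-well plates were pinned with five library-drug doses (not always all listed), each √10 from the next, on vehicle-anchored plates. The cells stayed 5 days without fresh medium, then a one-step fix, permeabilisation and Hoechst stain preceded 4× imaging and MetaXpress nuclear counts. A plate passed only with control CV under 25% and at least one doubling. Viability is the median, over plates, of treated-well nuclei relative to vehicle-well nuclei.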

Cediranib + Olaparib = compound: COc1cc2c(Oc3ccc4[nH]c(C)cc4c3F)ncnc2cc1OCCCN1CCCC1 [Cediranib] + O=C(c1cc(Cc2n[nH]c(=O)c3ccccc23)ccc1F)N1CCN(C(=O)C2CC2)CC1 [Olaparib] (partner 8 µM)
How it was run: (§1)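 Each reported value is a median over duplicate plates. It expresses relative viability: treated-well nuclei count divided by vehicle-well nuclei count. Lung cancer cell lines in 1536-well plates were dosed by pin tool a day after seeding, alone with one drug or with a fixed anchor-drug dose plus five library-drug doses (not always all listed) in √10 steps, and nuclei were counted after 5 days.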

[1] = compound: O=C(C[C@H]1NCCC[C@@H]1O)Cn1cnc2cc(Br)c(Cl)cc2c1=O (racemic) [Halofuginone] + CS(=O)(=O)N1CCN(Cc2cc3nc(-c4cccc5[nH]ncc45)nc(N4CCOCC4)c3s2)CC1 [Pictilisib] (partner 1 µM)
How it was run: as §1

[2] = compound: O=C(C[C@H]1NCCC[C@@H]1O)Cn1cnc2cc(Br)c(Cl)cc2c1=O (racemic) [Halofuginone] + Cc1cc(Nc2cc(N3CCN(C)CC3)nc(Sc3ccc(NC(=O)C4CC4)cc3)n2)n[nH]1 [Tozasertib] (partner 0.1 µM)
How it was run: as §1

Row | Cell Line | relative viability (Cediranib; 0.04 µM) | relative viability (Cediranib; 0.1265 µM) | relative viability (Cediranib; 0.4 µM) | relative viability (Cediranib; 4 µM) | relative viability (Cediranib + Olaparib; first compound 0.04 µM) | relative viability (Cediranib + Olaparib; first compound 0.1265 µM) | relative viability (Cediranib + Olaparib; first compound 0.4 µM) | relative viability (Cediranib + Olaparib; first compound 1.265 µM) | relative viability (Cediranib + Olaparib; first compound 4 µM) | relative viability ([1]; first compound 0.001 µM) | relative viability ([1]; first compound 0.003162 µM) | relative viability ([1]; first compound 0.01 µM) | relative viability ([1]; first compound 0.03162 µM) | relative viability ([1]; first compound 0.1 µM) | relative viability ([2]; first compound 0.001 µM) | relative viability ([2]; first compound 0.003162 µM) | relative viability ([2]; first compound 0.01 µM) | relative viability ([2]; first compound 0.03162 µM) | relative viability ([2]; first compound 0.1 µM) | relative viability (Cediranib; 1.265 µM)
1 | NCI-H1793 | 0.786 | 0.891 | 0.704 | 0.978 | 0.953 | 1.07 | 0.762 | 0.718 | 1.13 | 0.329 | 0.216 | 0.33 | 0.381 | 0.228 | 0.418 | 0.359 | 0.276 | 0.34 | 0.226 | 
2 | NCI-H1915 | 0.969 | 0.832 | 0.96 | 0.996 | 0.246 | 0.251 | 0.263 | 0.289 | 0.249 | 0.917 | 1.04 | 0.915 | 0.861 | 0.882 | 0.463 | 0.462 | 0.416 | 0.448 | 0.299 | 1.04
3 | NCI-H1944 | 0.93 | 0.955 | 0.918 | 0.936 | 0.391 | 0.394 | 0.395 | 0.407 | 0.376 | 0.317 | 0.398 | 0.347 | 0.35 | 0.307 | 0.264 | 0.282 | 0.243 | 0.237 | 0.196 | 0.883
4 | NCI-H1975 | 0.974 | 0.983 | 0.914 | 0.939 | 0.841 | 0.752 | 0.768 | 0.773 | 0.773 | 0.319 | 0.298 | 0.31 | 0.225 | 0.106 | 1.04 | 0.848 | 0.737 | 0.354 | 0.13 | 0.956
5 | NCI-H1993 | 0.73 | 0.878 | 0.857 | 0.87 |  | 0.933 | 0.847 | 1.1 | 1.09 | 0.788 | 0.749 | 0.891 | 0.807 | 0.803 | 0.56 | 0.52 | 0.565 | 0.545 | 0.532 | 0.726
6 | NCI-H2009 | 1.01 | 0.958 | 0.984 | 1.1 | 0.637 | 0.698 | 0.676 | 0.694 | 0.669 | 1.07 | 0.878 | 0.758 | 0.689 | 0.26 | 0.897 | 0.754 | 0.746 | 0.659 | 0.366 | 0.988
7 | NCI-H2023 | 1 | 1.02 | 0.902 | 1.19 | 0.511 | 0.445 | 0.47 | 0.445 | 0.527 | 0.268 | 0.232 | 0.228 | 0.141 | 0.0681 | 0.46 | 0.294 | 0.399 | 0.178 | 0.134 | 0.878
8 | NCI-H2085 | 1 | 1.08 | 0.946 | 0.97 | 0.737 | 0.729 | 0.745 | 0.8 | 0.746 | 0.58 | 0.407 | 0.448 | 0.515 | 0.48 | 0.959 | 0.877 | 0.729 | 0.847 | 0.716 | 0.99
